Where two headings read alike, the source gives them in different places.
Key:
[1] = system: rat hemorrhage model; assay: Controlled lethal hemorrhage (60% blood loss) in rats treated with H2S; assay type: in vivo
Experimental: After surgical implantation of catheters and recovery, blood was removed from conscious animals in 40 minutes. […] Three hours after the end of the bleed, surviving animals were given one shed-blood volume of lactated ringers solution intravenously.

[2] = system: Drosophila melanogaster; assay: Anoxia tolerance of adult flies after CO2 and/or H2S pretreatment; assay type: in vivo
Experimental: Basic experimental setup. Adult flies were introduced into 35 mL tubes made of glass with a gas-tight rubber stopper (Balsh tubes). This was usually accomplished by anesthetizing flies with CO2, moving groups of flies to vials with food to recover for at least 2 hours, and then transferring them into the Balsh tube. To exchange the gaseous environment in the Balsh tube, two 18 gauge needles were inserted into the rubber stopper, and gas is blown into one of the needles at 100 mL/min. To prevent dessication, gasses were humidified by bubbling through 10 mL of water before passing it through the Balsch tube. The water in the bubbler is equilibrated with the gas for at least 20 minutes before starting the experiment.
For “stopped-flow” experiments, gas exchange proceeded for 60 minutes before sealing the tube. For “low-flow” experiments, gas flow continued throughout the experiment. CO2 was from the house source (100%), and anoxic environments were established by flushing out room air with 100% nitrogen (N2). Care was taken to prevent introduction of room air into the system while switching the atmosphere from CO2 to N2.
After anoxic treatment, oxygen was reintroduced into the Balsh tube by flushing with house air for 20 minutes. The rubber stopper was then removed and a food vial is inverted over the top of the Balsh tubes with Parafilm. […] Viability was scored at least 18 hours after the end of anoxic treatment. After two weeks, if the food vials contained larvae and/or pupae the flies were considered to be fertile.

[3] = system: mice in lethal hypoxia; assay: Survival of H2S pre-treated mice in lethal hypoxia; assay type: in vivo, mouse; details: graded reduction of oxygen tension following H2S pre-treatment
Experimental: FIG. 11 Survival of Mice in 5% Oxygen.
Experiments were stopped at 60 minutes and if the animals still alive were returned to their cage.

[4] = system: mice; assay: Metabolic rate (CO2 production, O2 consumption) of mice with H2S and hypoxia; assay type: in vivo, mouse; details: Ta=13° C.
Experimental: FIG. 14 Metabolic Rate of a Mouse in 5% Oxygen. […] Metabolic rate measured by CO2 output. […] At hour 6 the mouse was returned to room air and allowed to recover.
FIG. 15 CO2 Production During Transition to Lethal Hypoxia. […] In addition, the change in CO2 production upon step-wise transition to 5% O2 for 1 hr followed by 4% O2 was measured. The percent change in CO2 production is plotted with standard error indicated.
Relative carbon dioxide production and oxygen consumption of a mouse when pretreated and exposed to 5% O2. […] These experiments were done at Ta=13° C. so they could be compared to our previous studies. Values are the means from three animals and the error bars represent one standard deviation. p-values indicate the significance between the bars with the same symbols.
To determine the rate of consumption of oxygen or the rate of production of carbon dioxide the biological matter is placed into a chamber that is sealed with two openings; for gas import and export. Gas (room air or other gases) is passed into the chamber at a given flow rate and out of the exit port to maintain approximately 1 atmosphere of pressure in the chamber. […]
In addition, the change in CO2 production upon step-wise transition to 5% O2 for 1 hr followed by 4% O2 was measured.

[5] = system: C. elegans; assay: Thermotolerance of C. elegans adapted to H2S; assay type: in vivo
Description: A: Adapted animals survive at high temperature longer than unadapted controls. Adapted animals were exposed to high temperature in H2S as young adults.

[6] = system: C. elegans; assay: Lifespan of C. elegans adapted to H2S; assay type: in vivo
Description: Animals raised in house air were moved to H2S-containing environments at the beginning of the lifespan experiment. The lifespan of these animals is 14.8±0.3 days, which is shorter than controls that remained in house air (mean lifespan 18.2±0.4 days).

[7] = system: C. elegans; assay: Developmental rates, progeny and rate of egg-laying of C. elegans in H2S; assay type: in vivo
Description: The rate of egg-laying is tightly correlated with oocyte production, an energetically expensive activity that is a sensitive readout of metabolic capacity.

[8] = system: rodents and humans; details: 500 ppm; followed by recovery; cited from earlier work
[9] = system: rats; details: cited from earlier work
[10] = system: humans; details: cited from earlier work
[11] = system: Drosophila melanogaster embryos and larvae; assay: Anoxia survival of fly embryos and larvae; assay type: in vivo
Experimental: Preliminary experiments with larvae and embryos. […] After exposure to anoxia for 24 h, 7 pupae were formed from a pool of 0-19 h old embryos. However, 20 pupae were observed from a matched pool that was pretreated with CO2 for 10 min.

[12] = system: Drosophila melanogaster; assay: Anoxia tolerance of adult flies after CO2 and/or H2S pretreatment; assay type: in vivo; details: bubbler water not equilibrated with N2, 13 h anoxic exposure

SMILES: S [H2S, Hydrogen sulfide]
- Complete recovery ([1]; 300 ppm H2S in room air from 20 min into the 40 min bleed to end of bleed): 85.7%
- Rats that survived hemorrhage and 3 hour shock period and recovered completely ([1]; 300 ppm H2S, survivors/treated): 6/7
- Blood bicarbonate content ([HCO3^−]) ([1]; End of bleed): 21 ± 3 mmol/L
- Blood bicarbonate content ([HCO3^−]) ([1]; Pre-bleed): 32 ± 3 mmol/L
- Survival of adult flies ([2]; 50 ppm H2S in room air prior to anoxia, 18.5 h): 25%
- Survival of adult flies ([2]; 50 ppm H2S in the CO2 pretreatment, removed as anoxia is established, 20 h): 35%
- Survival of adult flies ([2]; CO2 10 min, H2S/CO2 10 min, N2/H2S 10 min, then N2, 15 h anoxic exposure, low-flow): 50%
- Lowest oxygen tension survived for an hour [3]: 2.5%
- Drop in metabolic rate ([4]; 150 ppm H2S 20 min pretreatment then long exposure to 5% oxygen): over 50 fold
- Drop in metabolic rate ([4]; H2S alone for the same period of time (80 ppm, six hours)): 10 fold
- Survival at high temperature ([5]; adapted animals at high temperature in room air): 7.3 h
- H2S-treated animals alive when all untreated animals had died ([5]; average, data not shown): 80%
- Mean survival time at high temperature ([5]; sir-2.1(ok434) animals grown in H2S, high temperature in H2S (n=20)): 9.8 ± 0.3 h
- Mean survival time at high temperature ([5]; unadapted animals moved to high temperature in 50 ppm H2S): 2.1 h
- Mean survival time at high temperature ([5]; wild-type adapted animals, high temperature in H2S (n=136)): 65.5 h
- Mean lifespan ([6]; adapted animals in H2S (n=80)): 22.6 ± 1.0 days
- Increase of maximum lifespan ([6]; animals grown in H2S versus untreated controls): 4 days
- Lifespan ([6]; raised in house air, moved to H2S at the beginning of the lifespan experiment): 14.8 ± 0.3 days
- Lifespan ([6]; sir-2.1(ok434) animals raised in H2S (n=47)): 20.0 ± 1.6 days
- Rate of egg-laying ([7]; adapted (wild-type in 50 ppm H2S), in 2% O2): 4.9 ± 1.4 embryos per hour
- Rate of egg-laying ([7]; adapted (wild-type in 50 ppm H2S), in 2% O2 + H2S): 4.7 ± 1.2 embryos per hour
- Rate of egg-laying ([7]; adapted (wild-type in 50 ppm H2S), in H2S): 7.8 ± 2.0 embryos per hour
- embryogenesis, hours ± SEM (n) ([7]; adapted: wild-type animals in 50 ppm H2S, median time for 2-cell embryos to hatch at room temperature): 13.3 ± 0.4 (34) hours
- post-embryonic, hours ± SEM (n) ([7]; adapted: wild-type animals in 50 ppm H2S, median time for starved first-stage larvae to become gravid adults): 49.3 ± 0.2 (15) hours
- Numbers of progeny ([7]; animals raised in low H2S): 221±35
- Rate of egg-laying ([7]; clk-1(qm30), in 2% O2 + H2S): 2.5 ± 1.0 embryos per hour
- Rate of egg-laying ([7]; clk-1(qm30), in H2S): 3.2 ± 1.1 embryos per hour
- Rate of egg-laying ([7]; unadapted (wild-type grown in room air), in H2S, ± SD, n = 10): 8.3 ± 3.0 embryos per hour
- Rate of egg-laying ([7]; unadapted, in 2% O2 + H2S): 4.5 ± 1.6 embryos per hour
- Effect of exposure to extreme levels [8]: sudden collapse and unconsciousness
- Effect of perinatal exposure ([9]; 20 or 50 ppm H2S, 7 hours per day from gestation through post-natal day 21): longer dendritic branches with reduced aborization of cerebellar Purkinje cells
- Effects of repeated gas exposure ([9]; 80 ppm or greater H2S, 3 hours per day on five consecutive days (Struve et al. 2001)): Significant reductions in motor activity, water maze performance and body temperature
- Behavioral toxicity, learning ([9]; moderate levels (Partlo et al., 2001)): interferes with the ability of rats to learn a baited radial arm maze task
- Behavioral toxicity, avoidance ([9]; moderate levels, immediately after the end of the exposure (Higuchi and Fukamachi)): inhibits discriminated avoidance responses
- Effects in exposed rat pups ([9]; perinatal study, 80 ppm H2S (Dorman et al. 2000)): no neuropathological effects or altered motor activity, passive avoidance, or acoustic startle response

SMILES: [C-]#[O+] [carbon monoxide, Carbon monoxide]
- Effect on exposed humans ([10]; 50 ppm): no symptoms
- Effect on exposed humans ([10]; 200 ppm, within two-three hours): slight headache
- Effect on exposed humans ([10]; 400 ppm, within one to two hours): frontal headache
- Effect on exposed humans ([10]; 800 ppm, within 45 minutes): dizziness, nausea, and/or convulsions
- Effect on an organism ([10]; around 1000 ppm, exposure for more than around 1-2 minutes): expire

SMILES: O=C=O [CO, carbon dioxide]
- Flies recovered ([2]; treated only with CO2 for 10 min before the anoxic exposure, control experiment): 11%

SMILES: O=C=O [CO2, carbon dioxide]
- Survival of adult flies ([2]; 10 min CO2 pretreatment, 17, 22, and 24 h anoxia, low-flow, one experiment): no survival
- Survival of adult flies ([2]; CO2 10 minutes pretreatment (no H2S), 20 h anoxic exposure, low-flow): 6%
- Survival of adult flies ([2]; CO2 pretreatment 30 minutes, 19 h anoxic exposure, stopped-flow): 54%
- Survival of adult flies ([2]; CO2 pretreatment 90 minutes, 19 h anoxic exposure, stopped-flow): 28%
- Survival of adult flies ([2]; CO2 pretreatment, anoxic exposure, then CO2 for 20 minutes immediately following): no flies survived
- Survival of adult flies ([2]; CO2 without subsequent anoxic exposure): No survival
- Effect of CO2 pretreatment in cold treatment experiments ([2]; flies kept at 4° C. during anoxia): did not have a noticeable difference
- Survival versus no pretreatment ([2]; low-flow, 100% CO2 10 min, trend (FIG. 9)): greater survival
- Time of CO2 administration giving the highest fraction of surviving flies ([2]; stopped-flow, 22 h anoxic exposure): 0.5 to 5 min
- Survival of 0-24 h old embryos ([11]; 18.5 h anoxic exposure): develop to adulthood
- Movement of larvae upon reoxygenation ([11]; 24.5 h anoxia, only if pretreated): resume movement
- Pupae formed from a pool of 0-19 h old embryos ([11]; CO2 pretreatment 10 min, anoxia 24 h): 20 pupae
- Survival of adult flies [12]: no flies survived
